Measured values taken from ChEMBL document CHEMBL1201862, “PubChem BioAssay data set” (2004).
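Cells were grown in 96-well plates and exposed to each compound for 48 hours at five concentrations; endpoints were interpolated linearly between bracketing concentrations, or set to the highest concentration if not reached. Abbreviation: GI50, concentration required for 50% inhibition of growth.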 The source made the active and inactive calls. Rule as the data show it: active = GI50 up to about 1.1 µM and inactive = higher.

What was measured:
Assay in all cases: growth of human tumour cells (NCI), 48 h
HCT-15 = system: HCT-15
M14 = system: M14
MOLT-4 = system: MOLT-4
HT-29 = system: HT-29
HL-60 = system: HL-60
SF-268 = system: SF-268
KM12 = system: KM12
HCC 2998 = system: HCC 2998
EKVX = system: EKVX
SF-539 = system: SF-539
SW-620 = system: SW-620
TK-10 = system: TK-10
DU-145 = system: DU-145
SN12C = system: SN12C
Hs-578T = system: Hs-578T
COLO 205 = system: COLO 205
PC-3 = system: PC-3
NCI/ADR-RES = system: NCI/ADR-RES
SR = system: SR
SK-MEL-5 = system: SK-MEL-5
BT-549 = system: BT-549
HCT-116 = system: HCT-116
A498 = system: A498
HOP-62 = system: HOP-62
UACC-62 = system: UACC-62
SK-OV-3 = system: SK-OV-3
U-251 = system: U-251
CCRF-CEM = system: CCRF-CEM
ACHN = system: ACHN
SF-295 = system: SF-295
SNB-75 = system: SNB-75
OVCAR-5 = system: OVCAR-5
NCI-H23 = system: NCI-H23
SK-MEL-2 = system: SK-MEL-2
RPMI-8226 = system: RPMI-8226
786-0 = system: 786-0
NCI-H522 = system: NCI-H522
UACC-257 = system: UACC-257
NCI-H226 = system: NCI-H226
T47D = system: T47D
MDA-N = system: MDA-N
Malme-3M = system: Malme-3M
LOX IMVI = system: LOX IMVI
RXF 393 = system: RXF 393
MDA-MB-435 = system: MDA-MB-435
A549 = system: A549
CAKI-1 = system: CAKI-1
OVCAR-8 = system: OVCAR-8
SNB-19 = system: SNB-19
MCF7 = system: MCF7
OVCAR-3 = system: OVCAR-3
UO-31 = system: UO-31
HOP-92 = system: HOP-92
MDA-MB-231 = system: MDA-MB-231
IGROV-1 = system: IGROV-1
SK-MEL-28 = system: SK-MEL-28
DLD-1 = system: DLD-1
LXFL 529 = system: LXFL 529
K562 = system: K562
M19-MEL = system: M19-MEL
NCI-H460 = system: NCI-H460
OVCAR-4 = system: OVCAR-4

In the case of `COC(=O)C1=CO[C@@H](OC2OC(CO)C(O)C(O)C2O)[C@@H]2[C@H](C)[C@@H](O)[C@@H](O)[C@]12O` (some centres not stated), the GI50 (HCT-15) was > 100 µM, the GI50 (M14) was > 100 µM (inactive) and the GI50 (MOLT-4) was > 100 µM (inactive). For the same molecule, the GI50 (HT-29) was > 100 µM (inactive), the GI50 (HL-60) was > 100 µM (inactive) and the GI50 (SF-268) was > 100 µM (inactive). For the same molecule, the GI50 (KM12) was > 100 µM (inactive), the GI50 (HCC 2998) was > 100 µM (inactive) and the GI50 (EKVX) was > 100 µM (inactive). The GI50 (SF-539) was > 100 µM (inactive), the GI50 (SW-620) was > 100 µM (inactive) and the GI50 (TK-10) was > 100 µM (inactive). For the same molecule, the GI50 (DU-145) was > 100 µM (inactive), the GI50 (SN12C) was > 100 µM (inactive) and the GI50 (Hs-578T) was > 100 µM (inactive). For the same molecule, the GI50 (COLO 205) was > 100 µM (inactive), the GI50 (PC-3) was > 100 µM (inactive) and the GI50 (NCI/ADR-RES) was > 100 µM (inactive). The GI50 (SR) was > 100 µM (inactive), the GI50 (SK-MEL-5) was > 100 µM (inactive) and the GI50 (BT-549) was > 100 µM (inactive). The GI50 (HCT-116) was > 100 µM (inactive), the GI50 (A498) was > 100 µM (inactive) and the GI50 (HOP-62) was > 100 µM (inactive). The GI50 (UACC-62) was > 100 µM (inactive), the GI50 (SK-OV-3) was > 100 µM (inactive) and the GI50 (U-251) was > 100 µM (inactive). For the same molecule, the GI50 (CCRF-CEM) was > 10 µM (inactive), the GI50 (ACHN) was > 100 µM (inactive) and the GI50 (SF-295) was > 100 µM (inactive). For the same molecule, the GI50 (SNB-75) was 33 µM (inactive), the GI50 (OVCAR-5) was > 100 µM (inactive) and the GI50 (NCI-H23) was > 100 µM (inactive). The GI50 (SK-MEL-2) was > 100 µM (inactive), the GI50 (RPMI-8226) was > 100 µM (inactive) and the GI50 (786-0) was > 100 µM (inactive). For the same molecule, the GI50 (NCI-H522) was > 100 µM (inactive), the GI50 (UACC-257) was > 100 µM (inactive) and the GI50 (NCI-H226) was > 100 µM (inactive). For the same molecule, the GI50 (T47D) was > 100 µM (inactive), the GI50 (MDA-N) was > 100 µM (inactive) and the GI50 (Malme-3M) was > 100 µM (inactive). For the same molecule, the GI50 (LOX IMVI) was > 100 µM (inactive), the GI50 (RXF 393) was > 100 µM (inactive) and the GI50 (MDA-MB-435) was > 100 µM (inactive). The GI50 (A549) was > 100 µM (inactive), the GI50 (CAKI-1) was 13.4 µM (inactive) and the GI50 (OVCAR-8) was > 100 µM (inactive). For the same molecule, the GI50 (SNB-19) was > 100 µM (inactive), the GI50 (MCF7) was > 100 µM (inactive) and the GI50 (OVCAR-3) was > 100 µM (inactive). For the same molecule, the GI50 (UO-31) was > 100 µM (inactive), the GI50 (HOP-92) was > 100 µM (inactive) and the GI50 (MDA-MB-231) was 34.8 µM (inactive). The GI50 (IGROV-1) was > 100 µM (inactive) and the GI50 (SK-MEL-28) was > 100 µM (inactive).
For `CCOC(=O)/C(C#N)=C1/Sc2c(ncn(/N=C/c3ccc(OC)cc3)c2=O)N1c1ccccc1`, the GI50 (MOLT-4) was > 100 µM (inactive), the GI50 (HT-29) was 70.6 µM (inactive) and the GI50 (HL-60) was > 100 µM (inactive). The GI50 (DLD-1) was > 100 µM (inactive), the GI50 (SF-268) was 14.8 µM (inactive) and the GI50 (KM12) was > 100 µM (inactive). For the same molecule, the GI50 (HCC 2998) was > 100 µM (inactive), the GI50 (SF-539) was 14.8 µM (inactive) and the GI50 (SW-620) was > 100 µM (inactive). The GI50 (TK-10) was 50.2 µM (inactive), the GI50 (COLO 205) was > 100 µM (inactive) and the GI50 (SR) was > 100 µM (inactive). The GI50 (SK-MEL-5) was > 100 µM (inactive), the GI50 (HCT-116) was > 100 µM (inactive) and the GI50 (HOP-62) was 22.2 µM (inactive). The GI50 (UACC-62) was 31.1 µM (inactive), the GI50 (SK-OV-3) was 40.4 µM (inactive) and the GI50 (U-251) was 37.4 µM (inactive). For the same molecule, the GI50 (CCRF-CEM) was > 100 µM (inactive), the GI50 (ACHN) was > 100 µM (inactive) and the GI50 (SF-295) was 19.1 µM (inactive). For the same molecule, the GI50 (NCI-H23) was 54.8 µM (inactive), the GI50 (RPMI-8226) was > 100 µM (inactive) and the GI50 (LXFL 529) was 41.1 µM (inactive). For the same molecule, the GI50 (NCI-H522) was 25.4 µM (inactive), the GI50 (UACC-257) was 29.2 µM (inactive) and the GI50 (NCI-H226) was 36.1 µM (inactive). The GI50 (K562) was 62.5 µM (inactive), the GI50 (A549) was 67.8 µM (inactive) and the GI50 (OVCAR-8) was 40.6 µM (inactive). For the same molecule, the GI50 (SNB-19) was 33.5 µM (inactive), the GI50 (OVCAR-3) was 41.4 µM (inactive) and the GI50 (M19-MEL) was 74 µM (inactive). For the same molecule, the GI50 (UO-31) was > 100 µM (inactive), the GI50 (NCI-H460) was 28.9 µM (inactive) and the GI50 (HOP-92) was 13.9 µM (inactive). The GI50 (IGROV-1) was 56.2 µM (inactive) and the GI50 (SK-MEL-28) was 28.7 µM (inactive).
For `CSC1(C)C(=O)Nc2c(OCc3ccccc3)cc([N+](=O)[O-])cc21` (configuration not stated), the GI50 (HCT-15) was 50.5 µM, the GI50 (M14) was 29.8 µM (inactive) and the GI50 (MOLT-4) was 83.6 µM (inactive). The GI50 (HT-29) was 79.3 µM (inactive), the GI50 (HL-60) was 40.7 µM (inactive) and the GI50 (SF-268) was 31.6 µM (inactive). The GI50 (KM12) was 96.8 µM (inactive), the GI50 (HCC 2998) was > 100 µM (inactive) and the GI50 (EKVX) was 29.4 µM (inactive). For the same molecule, the GI50 (SF-539) was 66.1 µM (inactive), the GI50 (OVCAR-4) was > 100 µM (inactive) and the GI50 (SW-620) was 71.6 µM (inactive). For the same molecule, the GI50 (TK-10) was > 100 µM (inactive), the GI50 (DU-145) was > 100 µM (inactive) and the GI50 (SN12C) was 13.4 µM (inactive). For the same molecule, the GI50 (Hs-578T) was 17.7 µM (inactive), the GI50 (COLO 205) was > 100 µM (inactive) and the GI50 (PC-3) was 27 µM (inactive). For the same molecule, the GI50 (NCI/ADR-RES) was 28.4 µM (inactive), the GI50 (SR) was > 100 µM (inactive) and the GI50 (SK-MEL-5) was 15.3 µM (inactive). The GI50 (BT-549) was 51.1 µM (inactive), the GI50 (HCT-116) was 85.5 µM (inactive) and the GI50 (A498) was 34.2 µM (inactive). The GI50 (HOP-62) was > 100 µM (inactive), the GI50 (UACC-62) was 19.6 µM (inactive) and the GI50 (SK-OV-3) was > 100 µM (inactive). For the same molecule, the GI50 (U-251) was 19.9 µM (inactive), the GI50 (CCRF-CEM) was 84.3 µM (inactive) and the GI50 (ACHN) was > 100 µM (inactive). The GI50 (SF-295) was 57.1 µM (inactive), the GI50 (SNB-75) was 11.9 µM (inactive) and the GI50 (OVCAR-5) was 63 µM (inactive). The GI50 (NCI-H23) was 75.9 µM (inactive), the GI50 (SK-MEL-2) was 38.7 µM (inactive) and the GI50 (RPMI-8226) was 32.2 µM (inactive). For the same molecule, the GI50 (786-0) was 12.9 µM (inactive), the GI50 (NCI-H522) was 94.8 µM (inactive) and the GI50 (UACC-257) was > 100 µM (inactive). For the same molecule, the GI50 (NCI-H226) was 13.5 µM (inactive), the GI50 (T47D) was 19.3 µM (inactive) and the GI50 (MDA-N) was 30.1 µM (inactive). For the same molecule, the GI50 (Malme-3M) was 63.4 µM (inactive), the GI50 (LOX IMVI) was 53 µM (inactive) and the GI50 (K562) was 91 µM (inactive). For the same molecule, the GI50 (RXF 393) was 51.3 µM (inactive), the GI50 (MDA-MB-435) was 78.3 µM (inactive) and the GI50 (A549) was 21.5 µM (inactive). The GI50 (CAKI-1) was 75.3 µM (inactive), the GI50 (OVCAR-8) was 21.5 µM (inactive) and the GI50 (SNB-19) was > 100 µM (inactive). The GI50 (MCF7) was 14 µM (inactive), the GI50 (OVCAR-3) was > 100 µM (inactive) and the GI50 (NCI-H460) was > 100 µM (inactive). For the same molecule, the GI50 (HOP-92) was 20 µM (inactive), the GI50 (MDA-MB-231) was 26.7 µM (inactive) and the GI50 (IGROV-1) was 54.8 µM (inactive). For the same molecule, the GI50 (SK-MEL-28) was 75.3 µM (inactive).
